Here are results for 14 compounds from PubChem BioAssay (NCI).

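Compound exposure: 48 hours, 5 concentrations, 96-well plates. TGI denotes the concentration required for complete inhibition of growth.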 Some results are limits rather than exact numbers.

What all share (assay): growth of human tumour cells (NCI), 48 h
For experiment [1], the system named is SR leukemia.
The subject of experiment [2] is NCI-H522 lung.
For experiment [3], the system named is OVCAR-4 ovarian.
For experiment [4], the system named is OVCAR-3 ovarian.
Experiment [5] has as its system HT29 colon.
For experiment [6], the system named is MALME-3M melanoma.
Experiment [7] deals with A498 renal.
Experiment [8] deals with CAKI-1 renal.
Experiment [9] concerns SF-295 CNS.
Experiment [10] deals with OVCAR-5 ovarian.
In experiment [11] the test system is K-562 leukemia.

Turning to `CC1(C)C=Cc2c(cc3oc4ccc5c(c4c(=O)c3c2O)C=CC(C)(C)O5)O1`, the TGI in experiment [1], in experiment [2], in experiment [3], in experiment [4], in experiment [5] and in experiment [6] was above 100 µM each time. Besides, the TGI in experiment [7], in [8], in experiment [9] and in [10] was above 100 µM in each case.
With `Cc1cc(=O)oc2cc(SC(=O)N(C)C)ccc12`, the TGI in experiment [1], in experiment [2], in [3], in experiment [4], in [5] and in [6] was above 100 µM each time. The TGI in experiment [7], in [8], in experiment [9] and in experiment [10] was above 100 µM in each case.
For `CC1C(=NO)C(C)C(c2ccccc2)N(N=O)C1c1ccccc1` (stereo unspecified), the TGI in [1] is 45.7 µM; in experiment [2], 34.5 µM; in [3] it was 54.4 µM; in [11], above 100 µM; in experiment [4], 65.7 µM; in experiment [5] it was 33.8 µM. The TGI turned out to be 34.6 µM in experiment [6] and 29.5 µM in [9].
As to `C=CCOc1ccc(/C(N=Nc2ccc(C)cc2)=N/NC(=O)c2ccccc2)cc1OC`, the TGI was 25 µM in experiment [1]; 49.6 µM in experiment [2]; above 100 µM in experiment [3]; above 100 µM in experiment [4]; above 100 µM in experiment [5]; 76.9 µM in [6]. The TGI is 72 µM in [7], above 100 µM in [8], above 100 µM in [9] and above 100 µM in experiment [10].
In the case of `Cn1c2c(c3ccccc31)CCN1OCC=C[C@@H](C(=O)O)[C@@H]21`, the TGI in [1], in experiment [2], in experiment [3], in [4], in [5] and in [6] was above 100 µM each time. The TGI in [7], in experiment [8] and in experiment [10] was above 100 µM in each case.
`O=C(NO)c1ccc(OCc2cccc(Cl)c2)cc1`: the TGI in [1] was above 28.5 µM; in experiment [2], 19.2 µM; in [3], above 58 µM; in [11] it was above 31.6 µM; in experiment [4], above 64.1 µM; in experiment [5] it was 25.6 µM. Also, the TGI in experiment [7] was 20 µM; in [8] it was 37.5 µM; in [9], 35.2 µM; in [10], above 40.8 µM.
On to `COc1cc(C2SCC(=O)N2Cc2ccccc2)cc(OC)c1OC` (stereo unspecified), for which the TGI in experiment [1], in [2], in [3], in experiment [11], in [4] and in experiment [5] was above 100 µM each time. Further, the TGI in [8], in experiment [9] and in [10] was above 100 µM in each case.
Take `CC1(C)Oc2ccc3c(=O)c(-c4ccccc4)c(-c4ccccc4)oc3c2C1C(=O)O` (stereo unspecified): the TGI in experiment [2], in experiment [3], in experiment [11], in experiment [4], in experiment [5] and in experiment [6] was above 100 µM each time. For the same compound, the TGI in experiment [7], in experiment [8], in experiment [9] and in experiment [10] was above 100 µM throughout.
With `O=C1C=CC(=O)c2c1cc([N+](=O)[O-])c1ccoc21`, the TGI in [1] is above 100 µM; in experiment [2], 4.4 µM; in [3], 38.6 µM; in experiment [11] it was above 100 µM; in [4], 70.2 µM; in experiment [5], 76.7 µM. The TGI in experiment [7] turned out to be 30 µM; in [8] it was 3.54 µM; in [9], 35.8 µM; in [10] it was 35.4 µM.
In the case of `COc1ccc(N=Nc2c(C)c(C#N)c(=S)n(C3OC(COC(C)=O)C(OC(C)=O)C(OC(C)=O)C3OC(C)=O)c2C)cc1` (stereo unspecified), the TGI in experiment [1], in experiment [3], in experiment [11], in experiment [4], in experiment [5] and in experiment [6] was above 100 µM in each case. For the same compound, the TGI in experiment [8], in experiment [9] and in experiment [10] was above 100 µM each time.
In the case of `Cc1cccc(NC(=S)Nc2ccc([N+](=O)[O-])cc2)n1`, the TGI in experiment [1], in [3], in experiment [11], in experiment [5], in [7] and in experiment [8] was above 100 µM in each case. Moreover, the TGI in [9] is above 100 µM.
On to `CCOC(=O)[C@@H]1OC(c2ccccc2)O[C@H]1C(=O)OCC`, for which the TGI in [1], in experiment [3], in experiment [11], in [4], in experiment [5] and in experiment [6] was above 100 µM each time. The TGI in [7], in experiment [9] and in experiment [10] was above 100 µM throughout.
With `Cc1ccc2nc(N/N=C/c3ccc(C)s3)cc(C)c2c1`, the TGI was above 100 µM in experiment [1]; 18.9 µM in experiment [2]; 24.2 µM in experiment [3]; above 100 µM in experiment [11]; 17.4 µM in [4]; 12.4 µM in experiment [5]. Moreover, the TGI is 32 µM in [6], 30.9 µM in experiment [8], 21.1 µM in [9] and 22 µM in [10].
As to `Cc1ccc2c3c(cnc2n1)C(=O)OCCN3C`, the TGI in [1], in experiment [2], in experiment [3], in [11], in experiment [4] and in experiment [5] was above 100 µM in each case. Besides, the TGI in [7], in experiment [8], in experiment [9] and in experiment [10] was above 100 µM in each case.
